Here are results for 1 compound from patent publication US20250152616A1, “COMPOSITIONS FOR AND METHODS OF TREATING, PREVENTING, AND/OR MITIGATING PAIN” (Duke University, priority 2022, published 2025).

One assay has as its system fractured tibiae. The assay is described as follows: Safranin O histology of fractured tibiae. The assay is classed as in vivo, mouse. Conditions: 21 days post-fracture. On the procedure:
In all experiments, 12-week-old to 16-week-old C57BL/6J male mice (Jackson Laboratory, Bar Harbor, ME) and Lepr-cre; tdTomato reporter mice were used. The average mouse weight was 25 grams and mice were housed in groups of four to five, and kept on a 12-hr light-dark cycle with lights off at 1800 hr. All animals had ad libitum access to chow (PMI LabDiet 5001) and water. Fracture surgeries were performed as previously described (Zeng Y, et al. (2020) Adv Mater. 32:e1906022). Animals were anesthetized by isoflurane and injected with 1 mg/kg buprenorphine SR-LAB (ZooPharm, Laramie, WY). Each mouse was then placed in a supine position with the right tibia disinfected. After skin incision and reflection, proximal to the right knee, a 0.7-mm pin was inserted from the tibial plateau through the medullary cavity to stabilize the tibia, and a cut was made at the tibial midshaft to induce a transverse fracture. Bupivacaine (0.5%; Hospira, Lake Forest, IL) at ˜1 mg/kg body weight was applied at the surgical site following wound closure using 2 reflex clips (5 mm). For animals treated with control and adenosine-loaded macroporous hydrogels, macroporous hydrogels measuring approximately 5 mm (length)×3 mm (width)×1 mm (thick) containing either 1.05±0.1 mg adenosine (ADO) or no adenosine (CTL) were implanted adjacent to the fractures immediately. […]

The test system of the next assay is dissociated DRG neurons. Put plainly: Fura-2 calcium imaging of dissociated DRG neurons stimulated with capsaicin. The class given is cell-based, mouse. The source says:
DRG were isolated from mice using a modified version of the previously described protocol (Perner C, et al. (2021) STAR Protoc. 2:100333). Briefly, mice were euthanized and dosed in 70% ethanol to prevent fur contamination. Mice were positioned prone, and an incision was made along the spine from the neck to the base of the tail. Under a dissecting microscope, the surrounding soft tissue of the spinal column was removed from the dorsal side by Friedman-Pearson Rongeurs (Fine Science Tools, Foster City, CA, Cat #16021-14) from the mid thoracic region to the lumbosacral joint. The vertebral bone surrounding the DRG was gently crushed and removed with rongeurs exposing the spinal cord. The DRG were carefully extracted near the foramen between the vertebral levels. L3 and L4 DRG were collected for analyses. Dissected DRG were placed directly into ice-cold DMEM-F12 medium (ThermoFisher, Cat #11320033) for in vitro culture, Trizol (ThermoFisher, Cat #15596018) for PCR analyses, or 4% PFA for histology. For cell culture experiments, collected DRG were digested in digestion solution comprised of collagenase type II (Worthington, Lakewood, NJ, Cat #LS004176) and dispase (1.5 mg/mL each) dissolved in DMEM/F12. DRG were agitated in a digestion solution on an orbital shaker at 60 rpm and 37° C. for 20 minutes and repeated thrice with fresh digestion solution. Next, the digestion solution was replaced with trypsin-EDTA (0.025%) in DMEM/F12 and incubated for an additional 15 min to disrupt the remaining cell-to-cell adhesions. The solution was then replaced with DMEM/F12 and FBS (1:3) to neutralize trypsin. DRG were triturated to create a cell suspension and gently layered onto 15% bovine serum albumin (BSA) solution without mixing and centrifuged for 6 min at 280 g with minimal acceleration and no deceleration to separate non-neuronal cells and debris (Owen D E, et al. (2012) Methods Mol Biol. 846:179-187). […]
Intracellular cytosolic Ca^2+ was evaluated by Fura-2 loaded DRG neurons (Khomula E V, et al. (2019) J Neurosci. 39:7061-7073). […]

For the compound `Nc1ncnc2c1ncn2[C@@H]1O[C@H](CO)[C@@H](O)[C@H]1O` [adenosine], in the assay with fractured tibiae, the “callus size vs controls (histology)” value was “smaller callus size” and the “cortical bone at fracture site vs controls (histology)” value is “more cortical bone across the fracture site”. The “NGF-increased functional responses to capsaicin (Fura-2 average and peak intensity)” value with dissociated DRG neurons (NGF 200 ng/mL 1 day, adenosine 5 μM for 5 min, capsaicin 100 nM) was “attenuated”. The “functional activity of DRG neurons (normalized peak intensity, calcium imaging)” value in the assay with dissociated DRG neurons (initial screening, two different concentrations of adenosine, capsaicin stimulation) was “decreased”.
